Assay results reported in ChEMBL document CHEMBL4627246, “Pyroglutamide-Based P2X7 Receptor Antagonists Targeting Inflammatory Bowel Disease” (J Med Chem, 2020).

Experiments:
Assay type in all cases: cell-based
A549 = test: Cytotoxicity against human A549/ATCC cells assessed as effect on cell growth at 10 uM incubated for 48 hrs by sulforhodamine B assay; conditions: a549, 48 h
RPMI-8226 = test: Cytotoxicity against human RPMI8226 cells assessed as effect on cell growth at 10 uM incubated for 48 hrs by sulforhodamine B assay; conditions: rpmi-8226, 48 h
MOLT-4 = test: Cytotoxicity against human MOLT4 cells assessed as effect on cell growth at 10 uM incubated for 48 hrs by sulforhodamine B assay; conditions: molt-4, 48 h
NCI-H226 = test: Cytotoxicity against human NCI-H226 cells assessed as effect on cell growth at 10 uM incubated for 48 hrs by sulforhodamine B assay; conditions: nci-h226, 48 h
NCI-H23 = test: Cytotoxicity against human NCI-H23 cells assessed as effect on cell growth at 10 uM incubated for 48 hrs by sulforhodamine B assay; conditions: nci-h23, 48 h
NCI-H522 = test: Cytotoxicity against human NCI-H522 cells assessed as effect on cell growth at 10 uM incubated for 48 hrs by sulforhodamine B assay; conditions: nci-h522, 48 h
HT-29 = test: Cytotoxicity against human HT-29 cells assessed as effect on cell growth at 10 uM incubated for 48 hrs by sulforhodamine B assay; conditions: ht-29, 48 h
SF-268 = test: Cytotoxicity against human SF268 cells assessed as effect on cell growth at 10 uM incubated for 48 hrs by sulforhodamine B assay; conditions: sf-268, 48 h
U-251 = test: Cytotoxicity against human U251 cells assessed as effect on cell growth at 10 uM incubated for 48 hrs by sulforhodamine B assay; conditions: u-251, 48 h
LOX IMVI = test: Cytotoxicity against human LOXIMVI cells assessed as effect on cell growth at 10 uM incubated for 48 hrs by sulforhodamine B assay
M14 = test: Cytotoxicity against human M14 cells assessed as effect on cell growth at 10 uM incubated for 48 hrs by sulforhodamine B assay; conditions: m14, 48 h
MDA-MB-435 = test: Cytotoxicity against human MDA-MB-435 cells assessed as effect on cell growth at 10 uM incubated for 48 hrs by sulforhodamine B assay; conditions: mda-mb-435, 48 h
SK-MEL-2 = test: Cytotoxicity against human SK-MEL-2 cells assessed as effect on cell growth at 10 uM incubated for 48 hrs by sulforhodamine B assay; conditions: sk-mel-2, 48 h
SK-MEL-28 = test: Cytotoxicity against human SK-MEL-28 cells assessed as effect on cell growth at 10 uM incubated for 48 hrs by sulforhodamine B assay; conditions: sk-mel-28, 48 h
IGROV-1 = test: Cytotoxicity against human IGROV1 cells assessed as effect on cell growth at 10 uM incubated for 48 hrs by sulforhodamine B assay; conditions: igrov-1, 48 h
OVCAR-3 = test: Cytotoxicity against human OVCAR3 cells assessed as effect on cell growth at 10 uM incubated for 48 hrs by sulforhodamine B assay; conditions: ovcar-3, 48 h
SK-OV-3 = test: Cytotoxicity against human SKOV3 cells assessed as effect on cell growth at 10 uM incubated for 48 hrs by sulforhodamine B assay; conditions: sk-ov-3, 48 h
CAKI-1 = test: Growth inhibition of human Caki1 cells assessed as growth percentage at 10 uM incubated for 48 hrs by sulforhodamine B assay; conditions: caki-1, 48 h
SN12C = test: Cytotoxicity against human SN12C cells assessed as effect on cell growth at 10 uM incubated for 48 hrs by sulforhodamine B assay
TK-10 = test: Cytotoxicity against human TK10 cells assessed as effect on cell growth at 10 uM incubated for 48 hrs by sulforhodamine B assay; conditions: tk-10, 48 h

Measured: Activity

O=C(Nc1ccc(Cl)cc1Cl)[C@@H]1CCC(=O)N1Cc1ccccc1Cl
Non-Toxic: all assays above

CCCCCCN1C(=O)[C@@H]2CCC(=O)N2C1N(C)C (stereo not given in full)
Non-Toxic: all assays above

CCCCCCN1C(=O)[C@@H]2C/C(=C\N(C)C)C(=O)N2C1N(C)C (stereo not given in full)
Non-Toxic: all assays above

O=C(NCCc1ccccc1)[C@@H]1CCC(=O)N1Cc1ccc(Cl)cc1Cl
Non-Toxic: all assays above

O=C(NCc1ccc(Cl)cc1Cl)c1ccccn1
Non-Toxic: all assays above

O=C(NCc1ccc(Cl)cc1Cl)[C@@H]1CCC(=O)N1Cc1ccccc1
Non-Toxic: all assays above

O=C1N[C@H](C(=O)NCc2ccc(Cl)cc2Cl)C/C1=C/NCc1ccc(Cl)cc1Cl
Non-Toxic: all assays above

O=C(NCC1CCCCC1)[C@@H]1CCC(=O)N1c1ccccc1
Non-Toxic: all assays above

Cc1ccc(NC(=O)[C@@H]2CCC(=O)N2c2ccccc2)cc1
Non-Toxic: all assays above

N#Cc1ccc(N2C(=O)CC[C@H]2C(=O)NCc2ccc(Cl)cc2Cl)cc1
Non-Toxic: all assays above

O=C(NCc1ccc(Cl)cc1Cl)[C@@H]1CCC(=O)N1c1ccc(Cl)cc1Cl
Non-Toxic: all assays above

CN1CCN(/C=C2\C[C@@H](C(=O)NCc3ccc(Cl)cc3Cl)N(c3cccs3)C2=O)CC1
Non-Toxic: all assays above

O=C(NCc1ccc(Cl)cc1Cl)[C@@H]1CCC(=O)N1C(c1ccccc1)c1ccccc1
Non-Toxic: all assays above

CN(C)/C=C1\C[C@H]2C(=O)N(Cc3ccccc3Cl)C(N(C)C)N2C1=O (stereo not given in full)
Non-Toxic: all assays above
